In ChEMBL document CHEMBL3400003, “Isoindoline-1,3-dione derivatives targeting cholinesterases: design, synthesis and biological evaluation of potential anti-Alzheimer's agents” (Bioorg Med Chem, 2015):
pIC50: −log10 of the molar value.

Key:
[1] = target: Cholinesterase (Equus caballus) (UniProt P81908); test: Inhibition of BuChE in horse serum at 10 uM pre-incubated for 5 mins before addition of butyrylthiocholine iodide substrate by Ellman's assay
[2] = target: Acetylcholinesterase (Electrophorus electricus, UniProt O42275)
Chain of Acetylcholinesterase (Electrophorus electricus, UniProt O42275) (O42275 whole entry): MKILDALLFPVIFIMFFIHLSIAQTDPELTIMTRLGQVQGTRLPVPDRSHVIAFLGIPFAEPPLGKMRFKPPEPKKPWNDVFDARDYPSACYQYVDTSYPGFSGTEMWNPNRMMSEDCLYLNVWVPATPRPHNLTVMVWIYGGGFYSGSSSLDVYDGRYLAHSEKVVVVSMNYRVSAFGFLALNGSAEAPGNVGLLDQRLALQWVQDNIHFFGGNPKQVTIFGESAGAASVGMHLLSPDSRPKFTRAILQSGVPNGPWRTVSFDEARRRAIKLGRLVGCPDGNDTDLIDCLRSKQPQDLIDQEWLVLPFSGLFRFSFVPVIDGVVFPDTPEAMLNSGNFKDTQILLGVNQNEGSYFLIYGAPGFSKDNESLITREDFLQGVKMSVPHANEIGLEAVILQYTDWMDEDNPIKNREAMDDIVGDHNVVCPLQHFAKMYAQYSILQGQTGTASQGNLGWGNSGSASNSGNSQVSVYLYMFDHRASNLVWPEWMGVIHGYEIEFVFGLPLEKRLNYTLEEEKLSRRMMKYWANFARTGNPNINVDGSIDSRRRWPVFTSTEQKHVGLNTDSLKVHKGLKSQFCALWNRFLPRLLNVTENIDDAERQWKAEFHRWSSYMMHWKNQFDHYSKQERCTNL

[3] = target: Amyloid-beta precursor protein (Homo sapiens) (UniProt P05067); test: Inhibition of recombinant human HFIP-pretreated Amyloid beta (1 to 42) (unknown origin) self-induced aggregation at 10 uM after 24 hrs by thioflavin T-based fluorometric assay
Chain of Amyloid-beta precursor protein (Homo sapiens) (P05067 whole entry): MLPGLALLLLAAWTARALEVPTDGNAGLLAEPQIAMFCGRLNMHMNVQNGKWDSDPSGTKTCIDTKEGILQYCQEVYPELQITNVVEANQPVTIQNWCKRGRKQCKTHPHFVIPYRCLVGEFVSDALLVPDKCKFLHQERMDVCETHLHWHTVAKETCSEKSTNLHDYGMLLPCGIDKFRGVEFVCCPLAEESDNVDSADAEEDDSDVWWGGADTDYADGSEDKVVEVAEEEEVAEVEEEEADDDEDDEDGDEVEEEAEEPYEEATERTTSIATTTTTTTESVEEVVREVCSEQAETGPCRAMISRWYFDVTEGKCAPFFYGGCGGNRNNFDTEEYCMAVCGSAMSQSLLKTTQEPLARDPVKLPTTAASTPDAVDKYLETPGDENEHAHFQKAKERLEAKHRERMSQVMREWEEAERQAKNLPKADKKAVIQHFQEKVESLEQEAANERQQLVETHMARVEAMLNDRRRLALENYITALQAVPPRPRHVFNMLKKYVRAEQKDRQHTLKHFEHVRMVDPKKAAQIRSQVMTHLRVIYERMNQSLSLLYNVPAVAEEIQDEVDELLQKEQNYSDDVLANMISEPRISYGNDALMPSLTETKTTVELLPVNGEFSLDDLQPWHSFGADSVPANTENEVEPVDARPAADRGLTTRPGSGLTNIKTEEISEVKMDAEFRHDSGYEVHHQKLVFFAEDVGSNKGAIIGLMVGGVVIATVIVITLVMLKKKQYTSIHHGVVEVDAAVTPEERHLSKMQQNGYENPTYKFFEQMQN

[4] = target: Cholinesterase (Equus caballus, UniProt P81908)
Chain of Cholinesterase (P81908 whole entry): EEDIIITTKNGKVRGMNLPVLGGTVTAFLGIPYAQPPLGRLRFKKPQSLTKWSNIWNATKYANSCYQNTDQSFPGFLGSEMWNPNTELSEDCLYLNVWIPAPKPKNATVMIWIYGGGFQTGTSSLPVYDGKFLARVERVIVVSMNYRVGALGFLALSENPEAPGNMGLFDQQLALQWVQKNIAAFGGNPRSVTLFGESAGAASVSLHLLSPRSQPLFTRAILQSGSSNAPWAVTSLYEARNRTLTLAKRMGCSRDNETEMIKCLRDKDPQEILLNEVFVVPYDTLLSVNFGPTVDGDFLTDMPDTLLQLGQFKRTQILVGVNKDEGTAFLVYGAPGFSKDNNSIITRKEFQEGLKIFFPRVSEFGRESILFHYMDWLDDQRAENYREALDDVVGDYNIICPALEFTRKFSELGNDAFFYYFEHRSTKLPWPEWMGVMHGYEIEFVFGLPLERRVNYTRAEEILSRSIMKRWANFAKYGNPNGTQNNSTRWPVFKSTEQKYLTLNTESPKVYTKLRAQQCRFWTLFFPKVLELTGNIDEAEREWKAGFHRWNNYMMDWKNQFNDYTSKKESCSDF

[5] = target: Acetylcholinesterase (Homo sapiens, UniProt P22303)
Chain of Acetylcholinesterase (Homo sapiens, UniProt P22303) (P22303 whole entry): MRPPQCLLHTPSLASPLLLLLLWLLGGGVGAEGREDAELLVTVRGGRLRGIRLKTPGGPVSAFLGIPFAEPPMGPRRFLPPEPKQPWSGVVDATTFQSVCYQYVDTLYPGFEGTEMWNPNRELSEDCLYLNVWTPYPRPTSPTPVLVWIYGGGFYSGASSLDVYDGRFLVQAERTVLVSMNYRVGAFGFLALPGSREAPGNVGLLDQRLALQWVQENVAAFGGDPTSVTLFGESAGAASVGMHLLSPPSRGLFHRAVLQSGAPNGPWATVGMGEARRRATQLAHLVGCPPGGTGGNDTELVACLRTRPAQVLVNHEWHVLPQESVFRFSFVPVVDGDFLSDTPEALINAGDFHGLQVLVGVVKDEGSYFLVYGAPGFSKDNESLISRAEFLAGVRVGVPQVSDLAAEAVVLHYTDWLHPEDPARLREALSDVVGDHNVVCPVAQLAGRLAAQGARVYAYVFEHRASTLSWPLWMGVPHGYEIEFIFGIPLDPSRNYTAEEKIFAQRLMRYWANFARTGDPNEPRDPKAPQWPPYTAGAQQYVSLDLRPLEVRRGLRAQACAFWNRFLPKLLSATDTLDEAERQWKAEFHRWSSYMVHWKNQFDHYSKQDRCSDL

[6] = PAMPA

Chain of Cholinesterase (Equus caballus) (P81908 whole entry): as the sequence (P81908 whole entry) above

Compound	inhibition [1] [%]	pIC50 [2]	inhibition [3] [%]	pIC50 [4]	pIC50 [5]	log Pe [6]
CN(CCCCN1C(=O)c2ccccc2C1=O)Cc1ccccc1F	< 50	5.82	< 5			
CN(CCCCCCN1C(=O)c2ccccc2C1=O)Cc1ccccc1F		7.12	< 5	4.98	5.70	
CN(CCCCCCCCN1C(=O)c2ccccc2C1=O)Cc1ccccc1		6.86	< 5	6.27	6.07	
CN(CCCCCN1C(=O)c2ccccc2C1=O)Cc1ccccc1F	< 50	7.17	< 5		6.28	
CN(CCCCCCN1C(=O)c2ccccc2C1=O)Cc1ccccc1	< 50	7.05	< 5		5.74	
CN(CCCCCCCCN1C(=O)c2ccccc2C1=O)Cc1ccccc1F		6.18	< 5	5.33	6.19	
CN(CCCCCCCCN1C(=O)c2ccccc2C1=O)Cc1cccc(Cl)c1		5.87	< 5	6.04	5.98	
CN(CCCCCCCN1C(=O)c2ccccc2C1=O)Cc1ccccc1F		6.28	< 5	5.15	6.20	
O=C1c2ccccc2C(=O)N1Cc1ccc(CNCc2ccccc2F)cc1		5.59	< 5	5.54		
CN(CCCCCCCN1C(=O)c2ccccc2C1=O)Cc1cccc(Cl)c1		6.30	< 5	5.82	5.89	
CN(CCCCCCCN1C(=O)c2ccccc2C1=O)Cc1ccccc1		6.76	< 5	6.00	6.00	
CN(CCCCCN1C(=O)c2ccccc2C1=O)Cc1cccc(Cl)c1		6.96	< 5	5.23	6.27	
CN(CCCCCCN1C(=O)c2ccccc2C1=O)Cc1cccc(Cl)c1		7.02	< 5	5.61	5.92	
CC(=O)[C@H]1CC[C@H]2[C@@H]3CCC4=CC(=O)CC[C@]4(C)[C@H]3CC[C@]12C [PROGESTERONE]						-5.1
O=C1c2ccccc2C(=O)N1Cc1ccc(CNCc2ccccc2)cc1			< 5	5.68		
CN(CCCCCN1C(=O)c2ccccc2C1=O)Cc1ccccc1	< 50	7.10	< 5		6.44	
CN(CCCCN1C(=O)c2ccccc2C1=O)Cc1cccc(Cl)c1	< 50	5.84	< 5			
CN(CCCCN1C(=O)c2ccccc2C1=O)Cc1ccccc1	< 50	5.63	< 5			
O=C1c2ccccc2C(=O)N1Cc1ccc(CNCc2cccc(Cl)c2)cc1		5.20	< 5	5.88		
